Reference: patent publication US11596626B2, “Compound for use against pathogenic Neisseria and Haemophilus species and Moraxella catarrhalis” (priority 2017, dated 2023)

What was measured:
[1] = system: Neisseria gonorrhoeae strain MS11; experiment: Growth curves in liquid culture (optical density) vs DMSO control; type: cell-based
Procedure: (§1) Growth experiments with NQNO were conducted against Neisseria gonorrhoeae strain MS11 (Edwards, M., et al., Antigenic analysis of gonococcal pili using monoclonal antibodies, J Exp Med, 1984. 160(6): p. 1782-91) and a multidrug-resistant N. gonorrhoeae isolate from Slovenia (Unemo M, Golparian O, Potočnik M, Jeverica S. Treatment failure of pharyngeal gonorrhoea with internationally recommended first-line ceftriaxone verified in Slovenia, September 2011. Euro Surveill. 2012; 17(25):pii=20200), Neisseria macacae, and Lactobacillus brevis. The bacteria were inoculated in GC (Difco™ GC medium Ref. 228950, BD Becton Dickinson) and PPM broth (15 g/L Proteon Pepton, 1 g/L soluble starch, 5 g/L NaCl, 4 g/L KH2PO4, 1 g/L K2HPO4, pH 7.5) (Neisseriae) or TSB (BBL™ Trypticase Soy Broth Ref 211768, BD Becton Dickinson) (Lactobacillus) supplemented with solvent (DMSO) or the indicated concentrations of NQNO (5-50 04) and their growth at 37° C. was monitored over the course of 10 h by optical density readings in 30 minute intervals.
(§2) Neisseria strains were cultured in PPM medium (15 g/l Proteon Pepton, 1 g/l soluble starch, 5 g/l NaCl, 4 g/l KH2PO4, 1 g/l K2HPO4, pH 7.5) for liquid culture and on GC plates (BD Difco™ GC Medium Base) supplemented with 1% vitamin mix (100 g/l glucose, 10 WI glutamine, 26 g/l L-cystein, 100 mg/l carboxylase, 250 mg/l NAD, 500 μl Fe(NO3)3, 150 mg/l arginine, 3 mg/l thiamine-HCl, 10 mg/l vitamine B12, 13 mg/I p-amino benzoic acid, 1.1 g/l L-cystin, 1 g/l adenine; 500 mg/l uracil, 30 mg/I guanine). […]
(§3) Before every experiment, bacteria were pre-cultured in 5 ml liquid medium for at least 2 hours then harvested and resuspended in PBS (phosphate buffered saline). Optical density (OD) was determined and a volume equal to an OD of 0.2 was inoculated into 5 ml of the respective medium. […] Samples were incubated for either 10.5 hours, until they reached stationary phase (three measured values in stationary phase) or until they reached an OD of 2.5. Optical density was determined every 0.5 h.

Neisseria macacae = experiment: as above; type: cell-based; settings: 5-50 μM, FIG. 3
Procedure: as §1, §2, §3

HeLa cells = experiment: MTT assay of metabolic activity (cytotoxicity); type: cell-based, human
Procedure: HeLa cells in 24-well plate were incubated for 24 h with concentrations of 0.5 to 10 μM NQNO or solvent (DMSO) as a control. Metabolic activity as a measure of mitochondrial respiration was recorded using 3-(4,5-Dimethylthiazol-2-yl)-2,5-diphenyltetrazoliumbromid (MTT) as reporting agent, Activity was measured with a plate reader at 550 nm, (FIG. 6). Shown are mean values+/S.D. of four replicate wells.
HeLa S3 cells were cultivated in Dulbecco's modified Eagle's medium (DMEM) medium supplemented with 10% fetal calf serum and passaged every 2-3 days. Primary human vaginal epithelial cells (hVEC/MS74) were obtained from A. J. Schaeffer (Feinberg School of Medicine, Northwestern University, Chicago, Ill.) and are derived from vaginal tissue of a post-menopausal person. The cell line was created through immortalization of these cells with human papilloma virus 16, E6 and E7 genes according to literature (N. Rajan et. al., Characterization of an immortalized human vaginal epithelial cell line. J Urol 163, 616-622 (2000)). […]
All plates were coated overnight at 4° C. with 0.1% gelatine in PBS before use. […] 0D550 was measured using a Thermo Fisher Varioskan Flash spectrophotometer.

Commensal Neisseria = experiment: Growth inhibition by area under the growth curve relative to solvent; type: cell-based; settings: 5-50 μM, FIG. 5
Procedure: Before every experiment, bacteria were pre-cultured in 5 ml liquid medium for at least 2 hours then harvested and resuspended in PBS (phosphate buffered saline). Optical density (OD) was determined and a volume equal to an OD of 0.2 was inoculated into 5 ml of the respective medium. NQNO was added at the indicated amounts (5-50 μM). DMSO level was adjusted to 1% of final concentration. Samples were incubated for either 10.5 hours, until they reached stationary phase (three measured values in stationary phase) or until they reached an OD of 2.5. Optical density was determined every 0.5 h.
Growth experiments with the compounds represented by the Formulas (4) to (7) were conducted against various bacteria, including clinical isolates of N. gonorrhoeae including high priority 3rd generation cephalosporin/fluoroquinolone-resistant strains, strains isolated from disseminated disease settings, and commensal Neisseria and other commensal bacteria and evaluated (FIGS. 5 and 11). Growth of the indicated bacteria was measured as described in Example 1. Growth inhibition was quantified by measuring the “area under the curve” in the presence of the indicated concentrations of the respective compound (5-50 μM) relative to growth in the presence of the solvent only. Black areas indicate growth inhibition with <30% growth compared to control.

[2] = system: multidrug-resistant N. gonorrhoeae isolate from Slovenia; experiment: Growth curves in liquid culture (optical density) vs DMSO control; type: cell-based, Neisseria gonorrhoeae
Procedure: as §1, with “intervals. […]” for “intervals.”
Before every experiment, bacteria were pre-cultured in 5 ml liquid medium for at least 2 hours then harvested and resuspended in PBS (phosphate buffered saline). Optical density (OD) was determined and a volume equal to an OD of 0.2 was inoculated into 5 ml of the respective medium. […] Optical density was determined every 0.5 h.

MS74 cells = experiment: Microscopic evaluation of treated cells; type: cell-based, human; settings: up to 50 μM, 2 days, FIG. 14
Source text: FIG. 14: Microscopic evaluation of MS74 cells treated for two days with the indicated concentrations of NQNO compared to DMSO control.

[3] = Stability in DMEM with 10% fetal calf serum by LC-MS; type: physicochemical; settings: 100 μM in DMEM with 10% fetal calf serum, 24° C. and 37° C.
Procedure: Stability of 100 μM NQNO in Dulbecco's modified Eagle's medium (DMEM) medium supplemented with 10% fetal calf serum at 24° C. and 37° C. was evaluated over a period of 4 days. Samples were taken at the beginning (day 0) and every second day. Samples were analyzed by LC-MS and the integrals of the detected NQNO (by using extracted ion chromatograms) compared to the integral of the control (100 μM NQNO in H2O) which was set to 100%.

CCCCCCCCCc1cc(=O)c2ccccc2n1O [NQNO, 1-Hydroxy-2-nonylquinolin-4(1H)-one]
Concentration leading to complete abrogation of gonococcal growth in vitro ([1]; N. gonorrhoeae MS11, 37° C., growth monitored over 10 h, FIG. 1): ≤ 5 µM
Concentration leading to complete abrogation of gonococcal growth in vitro ([1]; N. gonorrhoeae MS11, mass concentration given for 5 μM): < 1.4 µg/mL
Effect on growth (Neisseria macacae): did not compromise the growth
Cytotoxicity (metabolic activity, MTT) (HeLa cells; 10 μM, up to 24 h, preliminary experiment, FIG. 6): does not lead to cytotoxicity
Cytotoxicity (metabolic activity, MTT) (HeLa cells; up to 10 μM, 48 h, FIG. 12): did not exhibit signs of cytotoxicity
Growth inhibition (area under the curve relative to solvent) (Commensal Neisseria): not compromised
Concentration leading to complete growth inhibition ([2]; 37° C., 10 h, FIG. 2): ≤ 5 µM
Concentration leading to complete growth inhibition ([2]; mass concentration given for 5 μM): < 1.4 µg/mL
Morphology and overall phenotype of cells (MS74 cells): did not change
Time stable in serum-containing cell culture medium [3]: at least 4 days
